“And” between values parts separate entries of the source, which are not always exact repeats. Equal values may be shown once. Read-outs that look alike come from different tables or passages of the source. Each block holds one compound with its values, some of them ahead of it.
Columns and labels:
[1] = biological target: RPSA 1–220; settings: 1–220, E. coli, native, Ind. ELISA, 37 °C; cited from earlier work
[2] = biological target: T1, RPSA-(2–220) (Mus musculus, UniProt P14206); assay: Competition ELISA, KD between laminin and RPSA derivative; assay type: binding, murine; settings: read-out: KD(Laminin), 25°C, buffer C, equilibrium in solution
[3] = biological target: T2, RPSA-(2–209) (Mus musculus, UniProt P14206); assay: as above; assay type: binding, murine; settings: read-out: KD(Laminin), 25°C, buffer C, equilibrium in solution
[4] = biological target: C-domain of RPSA (Mus musculus, UniProt P14206); assay: Summary of ligand binding functions of RPSA domains; set-up: species or system murine; settings: read-out: KD (dissociation constants), C-domain; rounded value of the Abstract
[5] = biological target: RPSA 1–295; settings: 1–295, E. coli, native, Ind. ELISA, 37 °C; cited from earlier work
[6] = biological target: 67LR; settings: cell membrane, denatured, SPRadio-L, cited from earlier work
[7] = biological target: T3, RPSA-(2–295) (Mus musculus, UniProt P14206); assay: Competition ELISA, KD between laminin and RPSA derivative; assay type: binding, murine
[8] = biological target: T4, RPSA-(210–295) (Mus musculus, UniProt P14206); assay: as above; assay type: binding, murine; settings: read-out: KD(Laminin), 25°C, buffer C, equilibrium in solution
[9] = biological target: RPSA 161–180 (synthetic peptide G); settings: SPRadio-L, 4 °C; cited from earlier work
[10] = biological target: N-domain of RPSA (Mus musculus, UniProt P14206); assay: Summary of ligand binding functions of RPSA domains; set-up: species or system murine; settings: read-out: KD (dissociation constants), N-domain; rounded value of the Abstract
[11] = biological target: T5, RPSA-(225–295) (Mus musculus, UniProt P14206); assay: Competition ELISA, KD between laminin and RPSA derivative; assay type: binding, murine; settings: read-out: KD(Laminin), 25°C, buffer C, equilibrium in solution
[12] = biological target: T3, RPSA-(2–295); assay: Indirect ELISA, capture of heparin by immobilized RPSA derivative; assay type: binding, murine; settings: 25°C
[13] = biological target: T4, RPSA-(210–295); assay: as above; assay type: binding, murine; settings: 25°C
[14] = biological target: capture of laminin by immobilized RPSA-(2–220) (Mus musculus, UniProt P14206); assay type: binding, murine; settings: EC50 smaller than K1/2
[15] = biological target: interaction between RPSA-(225–295) and laminin (Mus musculus, UniProt P02468+P02469+P19137); assay: Competition ELISA, inhibition constant Ki of heparin; assay type: binding, murine; settings: read-out: constant of inhibition (Ki); 25°C, buffer C, laminin 5 μg/ml, immobilized RPSA-(225–295)
[16] = biological target: T5, RPSA-(225–295); assay: Indirect ELISA, capture of heparin by immobilized RPSA derivative; assay type: binding, murine; settings: 25°C
[17] = biological target: T1, RPSA-(2–220); assay: as above; assay type: binding, murine; settings: 25°C, half-saturation, listed as Heparin
[18] = biological target: T2, RPSA-(2–209); assay: as above; assay type: binding, murine; settings: 25°C, half-saturation
[19] = biological target: T3, RPSA-(2–295); assay: Fluorimetric titration of RPSA derivative with EGCG; assay type: binding, murine
[20] = system: 67LR form of RPSA, purified from human cancer cells; settings: 25°C, surface plasmon resonance; cited from earlier work
[21] = biological target: RPSA-(2–209) W195A (Mus musculus, UniProt P14206, W195A); assay: Fluorimetric titration of mutant RPSA-; assay type: binding, murine
[22] = biological target: RPSA-(2–209) W176A (Mus musculus, UniProt P14206, W176A); assay: Fluorimetric titration of mutant RPSA-; assay type: binding, murine
[23] = biological target: T2, RPSA-(2–209); assay: Fluorimetric titration of RPSA derivative with EGCG; assay type: binding, murine
[24] = biological target: T4, RPSA-(210–295); assay: as above; assay type: binding, murine; settings: 25°C
[25] = biological target: T5, RPSA-(225–295); assay: as above; assay type: binding, murine; settings: 25°C
[26] = biological target: T1, RPSA-(2–220); assay: as above; assay type: binding, murine; settings: read-out: KD(EGCG); 25°C, PBS, equilibrium in solution, spectrofluorimetry
[27] = read-out: KD(EGCG), 25°C, PBS, equilibrium in solution, spectrofluorimetry
[28] = uncorrected fluorescence, consistent with tryptophanamide control

Kd [2]: 691 ± 98 nM
Kd [3]: 273 ± 37 nM
Kd [4]: 300 nM
KD of laminin, full-length RPSA-(2–295) relative to N- or C-domain ([7]; higher for full-length): 2 fold
Kd ([7]; read-out: KD(Laminin), 25°C, buffer C, equilibrium in solution, competition ELISA): 666 ± 33 nM
Kd [8]: 374 ± 54 nM
Kd [10]: 300 nM
Kd [11]: 344 ± 50 nM
Compound: laminin: laminin from mouse EHS (Engelbreth-Holm-Swarm) sarcoma, component of the extracellular matrix
Kd [1]: 1700 nM
Kd [5]: 700 nM
Kd ([6]; 4 °C): 2 nM
Kd ([6]; 20 °C): 2 nM
Kd [9]: 52 nM

heparin binding (in words) [12]: did not bind
K1/2(Heparin) ([12]; half-saturation): ≫4 μM
heparin binding (in words) [13]: did not bind
K1/2(Heparin) ([13]; half-saturation): ≫2 μM
EC50 relative to K1/2 of heparin for RPSA-(2–220) [14]: 130 fold
Ki [15]: 16.1 ± 0.7 nM
heparin binding (in words) [16]: did not bind
K1/2(Heparin) ([16]; half-saturation): ≫2 μM
K1/2(Heparin) [17]: 4.4 µM and 4.36 ± 0.28 µM
K1/2(Heparin) [18]: 1.43 µM
K1/2(Heparin) ([18]; listed as Heparin): 1.43 ± 0.06 µM
Compound: heparin sodium salt

KD of EGCG, full-length RPSA-(2–295) relative to N-domain ([19]; higher for full-length): 4 fold
Kd [19, 27]: 399 ± 101 nM
decrease of free energy of interaction (ΔΔG) with EGCG ([21]; W195A vs parental RPSA-(2–209)): 0.4 ± 0.1 kcal/mol
Kd ([21]; read-out: KD (EGCG), 25°C, W195A mutant of RPSA-(2–209)): 196 ± 54 nM
decrease of free energy of interaction (ΔΔG) with EGCG ([22]; W176A vs parental RPSA-(2–209)): 0.4 ± 0.1 kcal/mol
Kd ([22]; read-out: KD (EGCG), 25°C, W176A mutant of RPSA-(2–209)): 186 ± 42 nM
KD of EGCG with RPSA-(2–209) relative to literature KD with 67LR ([23]; higher than 39.9 nM of ref 46): 2.5 fold
Kd [23, 27]: 99 ± 7 nM
EGCG binding (in words) ([24]; spectrofluorimetry): did not bind
[EGCG]1/2 (concentration of half-absorption, Beer's law fitted to F) [24, 28]: 48 µM
EGCG binding (in words) ([25]; spectrofluorimetry): did not bind
[EGCG]1/2 (concentration of half-absorption, Beer's law fitted to F) [25, 28]: 43 µM
Kd [10]: 100 nM
Kd [26]: 130 ± 37 nM
Compound: O=C(O[C@@H]1Cc2c(O)cc(O)cc2O[C@@H]1c1cc(O)c(O)c(O)c1)c1cc(O)c(O)c(O)c1 [EGCG, (−)-epigallocatechin-3-gallate]
KD (EGCG and 67LR), ratio kd/ka [20]: 39.9 nM

Reference: PMC4098866 (Bioscience Reports, 2012)
